Source: patent publication EP0171342A1, “Substituted 2-(1-amino-akylidenyl)1,3-indane diones, process for their preparation and their therapeutical use” (priority 1984, dated 1986)
In brackets after ≈: the same amount, converted by molar mass. Like-named read-outs stand apart in the source and are kept apart here.

Columns and labels:
[1] = test system: rat vigile spontanément hypertendu; assay: Antihypertensive activity in conscious spontaneously hypertensive rats (indirect tail pressure); format: in vivo; details: SHR, oral, 100 mg/kg
Procedure: L'activité antihypertensive a été appréciée chez le rat vigile spontanément hypertendu. La pression artérielle est mesurée de façon indirecte sur la queue 2, 4, 6 heures après l'administration par voie orale du produit à tester. Pour le COR4009, administré à la dose de 100 mg/kg, la réduction de pression est respectivement de 8, 13, 13% à ces échéances.

[2] = test system: rat Wistar soumis à une surcharge saline; assay: Diuretic activity in selected Wistar rats given a saline overload (modified Wiebelhaus test); format: in vivo
Procedure: L'activité diurétique des produits selon l'invention a été également déterminée chez le rat Wistar soumis à une surcharge saline selon une modification du test décrit par Wiebelhaus et coll., Fed. Proc., 1960, 19, 364, en procédant à une sélection des animaux. A la dose de 20 mg/kg, les COR4003, COR4008, COR4009, COR4010, COR4011, COR4012, COR4014, COR4016, COR4021, COR4025 augmentent l'excrétion urinaire volumétrique mesurée au bout de 6 heures de respectivement 56, 54, 65, 95, 73, 54, 33, 40, 99 et 92 %. L'excrétion urinaire du sodium augmente de respectivement 56, 24, 42, 59, 43, 33, 29, 43, 31, 83, 26, 99, 40 % toujours à cette dose pour les COR4003, COR4008, COR4009, COR4010, COR4011, COR4012, COR4014, COR4016, COR4017, COR4021, COR4023, COR4025 et COR4026. Le rapport Na/K demeure la plupart du temps inchangé. Testé dans les mêmes conditions le furosémide, administré à la dose de 20 mg/kg entraine 63% d'augmentation de l'excrétion urinaire volumétrique et 53% d'augmentation de l'excrétion urinaire du sodium.

souris [3] = assay: Anticonvulsant activity: maximal electroshock convulsions in mice; format: in vivo; details: mouse, oral, 100 mg/kg, one hour after administration
Description: L'activité anticonvulsivante est appréciée dans le test de la prévention des convulsions induites par des électrochocs d'intensité maximale.

[4] = test system: oreillette gauche de cobaye; assay: Calcium antagonist activity: electrically stimulated guinea pig left atrium; details: 150 beats/min, low-calcium (0,6 mM) Tyrode solution; read-out: concentration qui inhibe de 50% l'augmentation de la force de contraction induite par l'addition de 0,6 mM de calcium
Procedure: L'activité anticalcique a été déterminée in vitro sur deux modèles expérimentaux.
Sur oreillette gauche de cobaye stimulée électriquement à 150 battements/mn dans une solution de Tyrode pauvre en calcium (0,6 mM), les COR3789, COR3792, COR4009, COR4010 et COR4011 employés respectivement à 25, 100, 50, 10 et 25 microg/ml inhibent de 50% l'augmentation de la force de contraction induite par l'addition de 0,6 mM de calcium.

souris [5] = assay: Anticonvulsant activity: bicuculline-induced convulsions in mice; format: in vivo; details: mouse, i.p., 100 mg/kg
Procedure: L'activité anticonvulsivante est également déterminée dans le test des inhibitions des convulsions induites par la bicuculline. Des souris reçoivent par voie intrapéritonéale le produit à tester, puis 30 mn et 5 heures plus tard, deux injections séparées de 0,5 mg de bicuculline. […] Les résultats de ce test sont le reflet d'une activité gabaergique directe.

souris [6] = assay: Acute toxicity (mortality, LD50) in mice; format: in vivo; details: mouse
[7] = test system: rat soumis à une surcharge hydrique; assay: Diuretic activity in rats given a water overload, oral; format: in vivo; details: rat, water overload, oral; for response vs control in vivo at 20 mg/kg: read-out: facteur multipliant l'excrétion urinaire du sodium
Procedure: (§1) L'activité diurétique a été déterminée sur plusieurs modèles expérimentaux. Chez le rat soumis à une surcharge hydrique, administrés par voie orale à la dose de 20 mg/kg, le COR3760, le COR3789, le COR3792, le COR4002, le COR4003, le COR4009, le COR4010, le COR4012 et le COR4014 multiplient l'excrétion urinaire du sodium par respectivement un facteur 2,9 - 3,1 - 5,9 - 2,6 - 7,2 - 3,5 - 3,8 - 2,9 - 2,4. Administrés à la dose de 10 mg/kg, dans les mêmes conditions, les COR3760, COR3789, COR3792, COR4003 et COR4010 multiplient l'excrétion sodique par respectivement 2,3 - 2,9 - 2,8 - 2,4 et 2,5. La spironolactone multiplie quant à elle l'excrétion sodique d'un facteur 3,6 à la dose de 20 mg/kg. Administré à la dose de 5 mg/kg dans les mêmes conditions, le COR3792 multiplie l'excrétion sodique par 3,3. Administré par voie orale chez le rat ou la souris soumis à une surcharge saline, le COR3760 augmente l'excrétion urinaire volumétrique mesurée à la sixième heure de respectivement 49, 119 et 134% chez la souris et 28, 84 et 116% chez le rat après administration de 10, 20, et 40 mg/kg. Le COR3760 a été administré par voie orale au rat soumis à une surcharge hydrique et l'excrétion urinaire volumétrique, le sodium et le potassium excrétés ont été mesurés sur une période de 6 heures; ces paramètres ont varié de respectivement +17%, +102%, +165% à 10 mg/kg, +19%, +147%, +180% à 20 mg/kg et +36%, +415% et +239% à 40 mg/kg; le rapport Na/K passe de 0,56 chez les animaux témoins à 0,4 à 10 mg/kg, 0,49 à 20 mg/kg et 0, 8 à 40 mg/ kg. Au cours d'une seconde expérimentation, le COR3760 a entrainé des variations de +19%, +157%, +70% à 40 mg/kg, +19%, +319%, +90% à 60 mg/kg et +29%, +472% et +77% à 80 mg/kg; le rapport Na/K passe de 0,59 chez les animaux témoins à 0,88 à 40, 1,15 à 60 et 1,88 à 80 mg/kg.

souris [8] = assay: Antidepressant activity: inhibition of reserpine-induced ptosis in mice; format: in vivo; details: mouse, oral 200 mg/kg 90 min before reserpine 5 mg/kg i.p.; index 0 (maximum ptosis) to 6 (no ptosis)
Procedure: (§2) L'activité antidépressive a été déterminée dans le test de potentialisation de la toxicité de la yohimbine et dans le test de l'inhibition du ptosis induit par la réserpine.
(§3) On injecte par voie sous cutanée à des souris, lh avant l'administration par voie orale du produit à tester, une dose non léthale de yohimbine soit 15 mg/kg. Le COR3760 administré à la dose de 100 mg/kg entraine 80% de mortalité dans ces conditions. Des souris reçoivent par voie orale le produit à tester 90 mn avant l'injection par voie intrapéritonéale de 5 mg/kg de réserpine solubilisée. On cote le ptosis selon un index allant de 0 à 6, la cote 0 correspondant à un ptosis maximum et la cote 6 à l'absence de ptosis. Les COR3760 et COR4011 conduisent dans les conditions de l'expérience à un ptosis coté à 4 pour une dose de respectivement 200 et 50 mg/kg.

souris [9] = assay: Antidepressant activity: potentiation of yohimbine toxicity in mice; format: in vivo; details: mouse, yohimbine 15 mg/kg s.c. (non-lethal dose), test product oral 100 mg/kg
Procedure: as §2, §3

[10] = test system: rat soumis à une surcharge saline; assay: Diuretic activity in rats given a saline overload, oral; format: in vivo
Procedure: as §1

[11] = test system: poumon de cobaye isolé perfusé; assay: Bronchodilator activity: isolated perfused guinea pig lung contracted by methacholine; details: flow of Tyrode solution, lung contracted by 0,05 microg/ml methacholine; read-out: concentration qui augmente ce débit de 50%
Description: L'activité bronchodilatatrice a été déterminée in vitro par la mesure du débit d'une solution de Tyrode à travers un poumon de cobaye isolé perfusé, contracté par l'addition au fluide de perfusion de 0,05 microg/ml de méthacholine. Les COR3760, COR3789, COR3792, COR4003, COR4008, COR4010 et COR4014 utilisés respectivement aux concentrations de 50, 50, 100, 10, 50, 50 et 10 microg/ml augmentent ce débit de 50%. L'aminophylline entraine cette même activité à la concentration de 100 microg/ml.

[12] = test system: segments d'iléon de cobaye isolés; assay: Anticholinergic activity: acetylcholine-induced contractions of isolated guinea pig ileum; details: Cavia porcellus; contractions induced by 0,1 microg/ml acetylcholine; read-out: concentration qui inhibe ces contractions de 80%
Description: L'activité anticholinergique a été appréciée par la mesure des contractions induites par 0,1 microg/ml d'acétylcholine sur des segments d'iléon de cobaye isolés. Les COR3760, COR3789, COR3792, COR4003, COR4008, COR4010, COR4014 utilisés respectivement aux concentrations de 50, 25, 25, 50, 25, 10, 25 microg/ml inhibent ces contractions de 80%.

[13] = Acute toxicity (mortality, LD50) in mice; format: in vivo; details: in vivo; mouse, oral, in solution in Tween 20%; read-out: DL50 (the source's name)
[14] = test system: souris soumis à une surcharge saline; assay: Diuretic activity in mice given a saline overload, oral; format: in vivo; details: mouse
Procedure: as §1

[15] = first experiment, 10 mg/kg, 6 hours
[16] = first experiment, 20 mg/kg, 6 hours
[17] = first experiment, 40 mg/kg, 6 hours

COCCNC(C)=C1C(=O)c2ccccc2C1=O [COR4009, ((Méthoxy-2 éthyl) amino-1 éthylidényl)-2 indanedione-1,3]
réduction de pression ([1]; 2 hours after administration): 8% | réduction de pression ([1]; 4 hours after administration): 13% | réduction de pression ([1]; 6 hours after administration): 13% | change in vivo at 20 mg/kg ([2]; 6 h, read-out: augmentation de l'excrétion urinaire volumétrique mesurée au bout de 6 heures): 65% | change in vivo at 20 mg/kg ([2]; read-out: augmentation de l'excrétion urinaire du sodium): 42% | prévention des convulsions induites par des électrochocs d'intensité maximale (souris [3]): on n'observe plus de convulsions | IC50 [4]: 50 µg/mL (≈ 204 µM) | inhibition des convulsions induites par la bicuculline (souris [5]; first bicuculline injection (30 min later)): inhibe les convulsions induites par la première injection | inhibition des convulsions induites par la bicuculline (souris [5]; second bicuculline injection (5 hours later)): sans inhiber celles induites par la deuxième | mortalité (souris [6]; intraperitoneal, 200 mg/kg): aucune mortalité | mortalité (souris [6]; oral, 300 mg/kg): aucune mortalité | response vs control in vivo at 20 mg/kg ([7]; 20 mg/kg): 350%

CNC(C)=C1C(=O)c2ccccc2C1=O [COR3760, (Méthylamino-1 éthylidène)-2 indanedione-1,3]
ptosis coté (souris [8]): 4 | mortalité (souris [9]): 80% | augmentation de l'excrétion urinaire volumétrique mesurée à la sixième heure ([10]; 10 mg/kg): 28% | augmentation de l'excrétion urinaire volumétrique mesurée à la sixième heure ([10]; 20 mg/kg): 84% | augmentation de l'excrétion urinaire volumétrique mesurée à la sixième heure ([10]; 40 mg/kg): 116% | EC50 [11]: 50 µg/mL (≈ 248 µM) | IC80 [12]: 50 µg/mL (≈ 248 µM) | mortalité (souris [6]; intraperitoneal, 200 mg/kg): aucune mortalité | mortalité (souris [6]; oral, 300 mg/kg): aucune mortalité | LD50 [13]: 736 mg/kg | rapport Na/K ([7]; first experiment, 10 mg/kg (controls 0,56)): 0,4 | variation de l'excrétion urinaire volumétrique [7, 15]: +17% | variation du potassium excrété [7, 15]: +165% | variation du sodium excrété [7, 15]: +102% | rapport Na/K ([7]; first experiment, 20 mg/kg (controls 0,56)): 0,49 | variation de l'excrétion urinaire volumétrique [7, 16]: +19% | variation du potassium excrété [7, 16]: +180% | variation du sodium excrété [7, 16]: +147% | variation de l'excrétion urinaire volumétrique [7, 17]: +36% | variation du potassium excrété [7, 17]: +239% | variation du sodium excrété [7, 17]: +415% | facteur multipliant l'excrétion sodique ([7]; 10 mg/kg): 2,3 | response vs control in vivo at 20 mg/kg ([7]; 20 mg/kg): 290% | variation de l'excrétion urinaire volumétrique ([7]; second experiment, 40 mg/kg): +19% | variation du potassium excrété ([7]; second experiment, 40 mg/kg): +70% | variation du sodium excrété ([7]; second experiment, 40 mg/kg): +157% | rapport Na/K ([7]; second experiment, 40 mg/kg (controls 0,59)): 0,88 | variation de l'excrétion urinaire volumétrique ([7]; second experiment, 60 mg/kg): +19% | variation du potassium excrété ([7]; second experiment, 60 mg/kg): +90% | variation du sodium excrété ([7]; second experiment, 60 mg/kg): +319% | rapport Na/K ([7]; second experiment, 60 mg/kg (controls 0,59)): 1,15 | variation de l'excrétion urinaire volumétrique ([7]; second experiment, 80 mg/kg): +29% | variation du potassium excrété ([7]; second experiment, 80 mg/kg): +77% | variation du sodium excrété ([7]; second experiment, 80 mg/kg): +472% | rapport Na/K ([7]; second experiment, 80 mg/kg (controls 0,59)): 1,88 | augmentation de l'excrétion urinaire volumétrique mesurée à la sixième heure ([14]; 10 mg/kg): 49% | augmentation de l'excrétion urinaire volumétrique mesurée à la sixième heure ([14]; 20 mg/kg): 119% | augmentation de l'excrétion urinaire volumétrique mesurée à la sixième heure ([14]; 40 mg/kg): 134%
